# Laboratory results published in PMC3914206.
# Legend:
# panel of 442 kinases [1] = target: T1, panel of 442 kinases (Homo sapiens, UniProt Q9Y463); type: binding; settings: Compound Concentration 10 µM
# T1 construct: purchased KINOMEscan
# Description: (§1) We assessed the selectivity of members of this scaffold using the KINOMEscan methodology across a near comprehensive panel of 442 kinases [[18,27]].
# panel of 442 kinases [2] = target: T2, panel of 442 kinases (Homo sapiens, UniProt Q7L7X3); type: binding; settings: kinase TAOK1; compound concentration 10 µM
# T2 construct: purchased KINOMEscan
# T2 sequence (Q7L7X3 1-1001): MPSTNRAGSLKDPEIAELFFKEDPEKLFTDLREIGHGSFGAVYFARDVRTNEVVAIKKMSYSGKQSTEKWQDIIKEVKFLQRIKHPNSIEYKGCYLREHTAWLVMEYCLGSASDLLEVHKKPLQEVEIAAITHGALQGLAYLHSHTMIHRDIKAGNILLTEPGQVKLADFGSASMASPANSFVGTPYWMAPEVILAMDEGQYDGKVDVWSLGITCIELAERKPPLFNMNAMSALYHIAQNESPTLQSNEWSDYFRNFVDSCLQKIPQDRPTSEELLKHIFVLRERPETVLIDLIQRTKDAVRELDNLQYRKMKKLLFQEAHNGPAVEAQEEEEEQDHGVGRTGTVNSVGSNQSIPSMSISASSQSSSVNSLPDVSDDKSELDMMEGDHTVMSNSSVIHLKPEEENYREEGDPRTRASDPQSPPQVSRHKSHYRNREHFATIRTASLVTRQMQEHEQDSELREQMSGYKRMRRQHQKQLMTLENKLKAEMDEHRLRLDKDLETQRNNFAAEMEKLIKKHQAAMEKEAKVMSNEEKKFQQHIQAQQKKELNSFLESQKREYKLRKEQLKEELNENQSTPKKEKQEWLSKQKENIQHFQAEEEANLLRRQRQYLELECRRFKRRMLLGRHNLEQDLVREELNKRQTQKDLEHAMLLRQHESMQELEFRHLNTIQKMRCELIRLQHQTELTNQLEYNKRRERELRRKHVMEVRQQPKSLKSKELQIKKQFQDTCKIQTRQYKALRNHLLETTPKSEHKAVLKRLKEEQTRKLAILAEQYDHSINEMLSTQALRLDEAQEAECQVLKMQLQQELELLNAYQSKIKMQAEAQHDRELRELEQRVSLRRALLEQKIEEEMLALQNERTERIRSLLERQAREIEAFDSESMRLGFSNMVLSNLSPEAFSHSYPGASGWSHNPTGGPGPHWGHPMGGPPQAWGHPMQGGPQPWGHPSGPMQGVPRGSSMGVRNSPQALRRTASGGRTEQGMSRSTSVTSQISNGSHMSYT
# Description: as §1
# T1 sequence (Q9Y463 whole entry): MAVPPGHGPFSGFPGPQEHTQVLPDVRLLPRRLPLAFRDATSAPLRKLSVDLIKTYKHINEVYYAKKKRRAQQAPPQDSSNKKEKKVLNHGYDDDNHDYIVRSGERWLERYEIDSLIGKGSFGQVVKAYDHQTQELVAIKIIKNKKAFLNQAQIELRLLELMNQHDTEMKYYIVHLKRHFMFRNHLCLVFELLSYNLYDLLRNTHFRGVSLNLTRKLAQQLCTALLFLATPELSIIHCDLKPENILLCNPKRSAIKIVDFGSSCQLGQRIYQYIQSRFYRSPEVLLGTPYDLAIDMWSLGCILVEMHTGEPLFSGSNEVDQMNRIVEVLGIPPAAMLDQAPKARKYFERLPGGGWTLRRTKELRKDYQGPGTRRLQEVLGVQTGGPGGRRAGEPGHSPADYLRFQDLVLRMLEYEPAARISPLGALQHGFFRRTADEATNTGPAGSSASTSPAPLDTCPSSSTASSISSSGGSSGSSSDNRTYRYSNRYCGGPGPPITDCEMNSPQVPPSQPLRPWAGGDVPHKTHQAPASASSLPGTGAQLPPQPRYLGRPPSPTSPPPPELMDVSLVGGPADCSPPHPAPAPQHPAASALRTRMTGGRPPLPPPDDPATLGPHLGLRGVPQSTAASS
Compound,KINOMEscan: DYRK1B (panel of 442 kinases [1]),"% Ctrl, TAOK1 (panel of 442 kinases [2])"
"COc1cc(C(=O)N2CCC(N3CCN(C)CC3)CC2)ccc1Nc1ncc2c(n1)N(C1CCCC1)c1ccccc1C(=O)N2C [Compound 25, 11-cyclopentyl-2-((2-methoxy-4-(4-(4-methylpiperazin-1-yl)piperidine-1-carbonyl)phenyl)amino)-5-methyl-5H-benzo[e]pyrimido[5,4-b][1,4]diazepin-6(11H)-one]",69,51 % Ctrl
CCOc1cc(C(=O)N2CCC(N3CCN(C)CC3)CC2)ccc1Nc1ncc2c(n1)N(C1CCCC1)c1ccccc1C(=O)N2C [Compound 26],71,79 % Ctrl
COc1cc(C(=O)N2CCC(N3CCN(C)CC3)CC2)ccc1Nc1ncc2c(n1)N(C)c1ccccc1C(=O)N2C [15 (LRRK2-IN-1)],94,28 % Ctrl
